Laboratory results: patent US20040048195A1, “Heat-sensitive lithographic printing plate precursor” (AGFA-GEVAERT, priority 2002, published 2004)
Like-named read-outs stand apart in the source and are kept apart here.

Columns and labels:
Assay type in all cases: physicochemical
[1] = Test of inhibiting capability of the dyes: dissolution time of unexposed novolac/dye coating in Agfa EP26 developer; conditions: dye 35 mg/m^2 in 0.9 g/m^2 novolac, Agfa EP26 developer at 20° C., reference without dye 30 sec
Description: A layer of novolac (Alnovol SPN452 from Clariant, a 40.5 wt. % solution in methoxypropanol) and the dyes specified in Table 2 were coated on the above support. After drying during 1 min at 130° C., the samples contained 0.9 g/m^2 of novolac. A series of unexposed samples is immersed in Agfa EP26 developer at 20° C., each sample during a different time period. After the immersion period, the sample was removed from the developer, immediately rinsed with water, dried and then the dissolution of the coating in the developer was measured by comparing the weight of the sample before and after the development. As soon as the coating is dissolved completely, no more weight loss is measured upon longer immersion time periods, i.e. a curve representing weight loss as a function of immersion time reaches a plateau from the moment of complete dissolution of the layer, which is referred to herein as “dissolution time”. When the dissolution time of the sample containing the IR dye is longer than the dissolution time of the sample without the IR dye, then the IR dye clearly acts as an inhibitor.

[2] = Solubility of the IR-dyes (supersaturated solution, filtration, spectrophotometric determination); conditions: for solubility: thermodynamic from solid
Description: The solubility of the IR-dyes IR-1 to −5 and of a comparison dye Cl (commercially available from FEW Chemicals GmbH) was determined as follows:
the extinction coefficient of the dyes was measured in methanol with a HP8453 UV/VIS/NIR spectrophotometer;
a supersaturated solution of the dyes in a) 2-methoxyl-propanol (MOP) and b) water/NaOH (pH=9) was prepared; after filtration the concentration of dissolved dye was determined by dissolution with methanol using the previous determined extinction coefficient. [drawing 8]

[3] = as above; conditions: water/NaOH, pH 11.7, aqueous buffer, thermodynamic from solid, insoluble at pH = 9; NaOH was added until pH = 11.7; read-out: Solubility in H2O/NaOH

With `CN1/C(=C/C=C2\CCCC(/C=C/C3=[N+](C)c4ccc5ccccc5c4C3(C)C)=C2Cl)C(C)(C)c2c1ccc1ccccc21` [Comparison, reference compound] the Dissolution time [1] was 60 s, the solubility ([2]; 2-methoxyl-propanol (MOP), organic solvent or mixture, 2-methoxyl-propanol (MOP), read-out: Solubility in MOP) was 50.1 mg/mL and the solubility [3] was under 0.002 mg/mL.

In the case of `CC1(C)C(/C=C/C2=C(Sc3ccccc3C(=O)O)C(=C/C=C3/N(CCCCS(=O)(=O)[O-])c4ccccc4C3(C)C)/CCC2)=[N+](CCCCS(=O)(=O)[O-])c2ccccc21.[K+]` [IR-dye 1], the Dissolution time ([1]; listed as IR-1) is reported as 30 s, the “Solubility in MOP” value ([2]; 2-methoxyl-propanol (MOP)) is reported as 3.8 mg/mL and the “Solubility in H2O/NaOH at pH = 9” value ([2]; water/NaOH, pH = 9) is reported as 40.1 g/l.

In the case of `CC1(C)C(/C=C/C2=C(Sc3ccccc3C(=O)O)C(=C/C=C3/N(CCCCS(=O)(=O)[O-])c4ccccc4C3(C)C)/CCC2)=[N+](CCCCS(=O)(=O)[O-])c2ccccc21.[K+]` [IR-dye 2], the Dissolution time ([1]; listed as IR-2) is reported as 20 s, the “Solubility in MOP” value ([2]; 2-methoxyl-propanol (MOP)) is reported as 0.42 mg/mL and the “Solubility in H2O/NaOH at pH = 9” value ([2]; water/NaOH, pH = 9) is reported as over 50 g/l.

In the case of `CC1(C)C(/C=C/C2=C(Sc3ccccc3C(=O)O)C(=C/C=C3/N(CCCCS(=O)(=O)[O-])c4ccccc4C3(C)C)/CCC2)=[N+](CCCCS(=O)(=O)[O-])c2ccccc21.[K+]` [IR-dye 3], the Dissolution time ([1]; listed as IR-3) is reported as 30 s, the “Solubility in MOP” value ([2]; 2-methoxyl-propanol (MOP)) is reported as over 100 mg/mL and the “Solubility in H2O/NaOH at pH = 9” value ([2]; water/NaOH, pH = 9) is reported as over 50 g/l.

For `CC1(C)C(/C=C/C2=C(Sc3ccccc3C(=O)O)C(=C/C=C3/N(CCCCS(=O)(=O)[O-])c4ccccc4C3(C)C)/CCC2)=[N+](CCCCS(=O)(=O)[O-])c2ccccc21.[K+]` [IR-dye 4], the Dissolution time ([1]; listed as IR-4) was 20 s, the “Solubility in MOP” value ([2]; 2-methoxyl-propanol (MOP)) was 5.7 mg/mL and the “Solubility in H2O/NaOH at pH = 9” value ([2]; water/NaOH, pH = 9) was over 50 g/l.

Compound `CC1(C)C(/C=C/C2=C(Sc3ccccc3C(=O)O)C(=C/C=C3/N(CCCCS(=O)(=O)[O-])c4ccccc4C3(C)C)/CCC2)=[N+](CCCCS(=O)(=O)[O-])c2ccccc21.[K+]` [IR-dye 5] has a Dissolution time ([1]; listed as IR-5) of 25 s, a solubility ([2]; 2-methoxyl-propanol (MOP) with tri-ethylamine, organic solvent or mixture, 2-methoxyl-propanol (MOP), tri-ethylamine was added to dissolve the dye, read-out: Solubility in MOP) of 91.3 mg/mL and a solubility ([2]; water/NaOH, pH 9, aqueous buffer, water/NaOH, pH = 9, read-out: Solubility in H2O/NaOH at pH = 9) of over 50 mg/mL.
